Reference: ChEMBL document CHEMBL5370562, “Synthesis and evaluation of Fmoc-amino esters and amides bearing a substrate like quaternary ammonium group as selective butyrylcholinesterase inhibitors” (Bioorg Med Chem Lett, 2023)
The source made the active and inactive calls. The rule behind the calls is not given here.

Assays:
[1] = target: T1, Cholinesterase (Equus caballus, UniProt P81908); test: Inhibition of equine serum BuChE using S-butyrylthiocholine iodide as substrate and measured for 60 secs by Ellman's method; type: cell-free
T1 sequence (P81908 whole entry): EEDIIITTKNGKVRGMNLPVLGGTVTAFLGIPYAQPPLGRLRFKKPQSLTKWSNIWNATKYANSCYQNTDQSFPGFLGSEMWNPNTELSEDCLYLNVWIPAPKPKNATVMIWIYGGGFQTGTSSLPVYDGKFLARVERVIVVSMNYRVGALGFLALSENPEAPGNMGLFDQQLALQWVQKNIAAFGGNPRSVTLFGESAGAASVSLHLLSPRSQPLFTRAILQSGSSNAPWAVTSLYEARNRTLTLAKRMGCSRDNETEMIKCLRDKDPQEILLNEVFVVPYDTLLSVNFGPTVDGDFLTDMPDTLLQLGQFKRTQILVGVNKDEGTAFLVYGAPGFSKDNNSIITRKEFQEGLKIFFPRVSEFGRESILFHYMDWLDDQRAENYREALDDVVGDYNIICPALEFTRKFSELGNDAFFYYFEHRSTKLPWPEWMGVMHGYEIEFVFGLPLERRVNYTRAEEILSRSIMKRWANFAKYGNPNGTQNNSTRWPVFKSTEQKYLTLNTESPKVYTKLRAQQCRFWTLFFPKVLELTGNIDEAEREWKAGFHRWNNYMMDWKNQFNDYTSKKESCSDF

[2] = target: BuChE (butyrylcholinesterase) (Equus caballus, UniProt P81908); test: (§1) Substrate activity at equine serum BuChE assessed as compound hydrolysis at 10XIC50 measured after 1 hr by HPLC analysis; type: ADME, cell-free; settings: horse, equine serum butyrylcholinesterase (BuChE), read-out: Drug metabolism
Chain of BuChE (butyrylcholinesterase) (P81908 whole entry): as above

[3] = Drug metabolism in sodium phosphate buffer assessed as compound hydrolysis at 10XIC50 measured after 24 hrs by HPLC analysis; type: ADME; settings: read-out: Drug metabolism
[4] = target: T1, Cholinesterase; test: as §1; type: ADME, cell-free; settings: horse, serum, 1 h
[5] = target: Cholinesterase (Equus caballus) (UniProt P81908); test: Reversible inhibition of equine serum BuChE assessed as residual enzyme activity at IC50 using S-butyrylthiocholine iodide as substrate preincubated with enzyme for 60 mins followed by 80-fold dilution with BTC and DTNB and measured for 1 min by spectrophotometric analysis relative to control; type: cell-free; settings: time 61.0 min
Chain of Cholinesterase (Equus caballus) (P81908 whole entry): as above

[6] = target: Cholinesterase (Equus caballus) (UniProt P81908); test: Inhibition of equine serum BuChE assessed as residual enzyme activity at 20 uM using S-butyrylthiocholine iodide as substrate and measured for 60 secs by spectrophotometric analysis relative to control; type: cell-free; settings: time 60.0 sec
[7] = target: Cholinesterase (Equus caballus) (UniProt P81908); test: Inhibition of equine serum BuChE assessed as residual enzyme activity at 10 uM using S-butyrylthiocholine iodide as substrate and measured for 60 secs by spectrophotometric analysis relative to control; type: cell-free; settings: time 60.0 sec
[8] = target: Cholinesterase (Equus caballus) (UniProt P81908); test: Inhibition of equine serum BuChE assessed as residual enzyme activity at 50 uM using S-butyrylthiocholine iodide as substrate and measured for 60 secs by spectrophotometric analysis relative to control; type: cell-free; settings: time 60.0 sec
[9] = target: Acetylcholinesterase (Electrophorus electricus) (UniProt O42275); test: Inhibition of electric eel AChE assessed as residual enzyme activity at 10 uM using acetylthiocholine iodide as substrate and measured for 1 min by spectrophotometrc analysis relative to control
Chain of Acetylcholinesterase (Electrophorus electricus) (O42275 24-633 limits assumed): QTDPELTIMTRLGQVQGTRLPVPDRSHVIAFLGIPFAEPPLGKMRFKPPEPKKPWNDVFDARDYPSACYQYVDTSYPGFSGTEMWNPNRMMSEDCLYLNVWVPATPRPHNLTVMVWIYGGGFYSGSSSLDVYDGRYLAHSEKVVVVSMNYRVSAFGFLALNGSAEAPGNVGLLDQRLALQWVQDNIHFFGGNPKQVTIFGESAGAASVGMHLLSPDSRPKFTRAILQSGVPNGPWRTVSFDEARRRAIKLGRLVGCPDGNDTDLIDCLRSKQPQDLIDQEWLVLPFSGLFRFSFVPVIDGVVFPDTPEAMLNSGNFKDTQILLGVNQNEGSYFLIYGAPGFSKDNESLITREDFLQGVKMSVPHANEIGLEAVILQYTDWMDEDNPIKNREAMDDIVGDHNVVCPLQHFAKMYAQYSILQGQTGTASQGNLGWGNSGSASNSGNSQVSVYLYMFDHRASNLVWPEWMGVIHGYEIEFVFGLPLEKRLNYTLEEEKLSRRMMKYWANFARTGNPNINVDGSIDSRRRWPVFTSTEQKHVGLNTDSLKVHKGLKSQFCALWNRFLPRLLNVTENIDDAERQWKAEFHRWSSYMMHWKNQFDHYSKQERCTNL

[10] = target: Acetylcholinesterase (Electrophorus electricus) (UniProt O42275); test: Inhibition of electric eel AChE assessed as residual enzyme activity at 20 uM using acetylthiocholine iodide as substrate and measured for 1 min by spectrophotometrc analysis relative to control
[11] = target: Acetylcholinesterase (Electrophorus electricus) (UniProt O42275); test: Inhibition of electric eel AChE assessed as residual enzyme activity at 50 uM using acetylthiocholine iodide as substrate and measured for 1 min by spectrophotometrc analysis relative to control
[12] = target: T2, Trypsin (Homo sapiens) (UniProt P07477+P07478+P35030); test: Inhibition of trypsin (unknown origin) assessed as residual enzyme activity at 10 uM using 4-nitrophenyl acetate as substrate and measured for 1 min by spectrophotometric analysis relative to control; type: protein assay
[13] = target: T2, Trypsin (Homo sapiens); test: Inhibition of trypsin (unknown origin) assessed as residual enzyme activity at 20 uM using 4-nitrophenyl acetate as substrate and measured for 1 min by spectrophotometric analysis relative to control; type: protein assay
[14] = target: T2, Trypsin (Homo sapiens); test: Inhibition of trypsin (unknown origin) assessed as residual enzyme activity at 50 uM using 4-nitrophenyl acetate as substrate and measured for 1 min by spectrophotometric analysis relative to control; type: protein assay
[15] = target: Acetylcholinesterase (Electrophorus electricus) (UniProt O42275); test: Inhibition of electric eel AChE at 50 uM using acetylthiocholine iodide as substrate and measured for 1 min by spectrophotometrc analysis relative to control
[16] = target: T2, Trypsin (Homo sapiens); test: Inhibition of trypsin (unknown origin) at 50 uM using 4-nitrophenyl acetate as substrate and measured for 1 min by spectrophotometric analysis relative to control; type: protein assay
[17] = target: Acetylcholinesterase (Electrophorus electricus) (UniProt O42275); test: Inhibition of electric eel AChE at 100XIC50 for BuChE using acetylthiocholine iodide as substrate and measured for 1 min by spectrophotometrc analysis
[18] = target: Acetylcholinesterase (Electrophorus electricus) (UniProt O42275); test: Inhibition of electric eel AChE at 25XIC50 for BuChE using acetylthiocholine iodide as substrate and measured for 1 min by spectrophotometrc analysis relative to control
[19] = target: Cholinesterase (Equus caballus) (UniProt P81908); test: Irreversible inhibition of equine serum BuChE assessed as residual enzyme activity at IC50 using S-butyrylthiocholine iodide as substrate preincubated with enzyme for 60 mins followed by 80-fold dilution with BTC and DTNB and measured for 1 min by spectrophotometric analysis relative to control; type: cell-free; settings: time 61.0 min

| Compound | IC50 [1] [µM] | metabolised at 1 h [2] [%] | degraded at 24 h [3] [%] | Drug metabolism [4] | Ratio [5] | Ratio [6] | Ratio [7] | Ratio [8] | Ratio [9] | Ratio [10] | Ratio [11] | Ratio [12] | Ratio [13] | Ratio [14] | inhibition [16] [%] | inhibition [17] | also measured |
| --- | --- | --- | --- | --- | --- | --- | --- | --- | --- | --- | --- | --- | --- | --- | --- | --- | --- |
| CC(C)(C)OC(=O)n1cc(C[C@H](NC(=O)OCC2c3ccccc3-c3ccccc32)C(=O)OCC[N+](C)(C)C)c2ccccc21 | 0.4 | ~25 | ~20 |  |  |  |  |  |  |  |  |  |  |  |  |  |  |
| C[N+](C)(C)CCNC(=O)[C@H](Cc1ccccc1)NC(=O)OCC1c2ccccc2-c2ccccc21.[I-] | 0.6 |  |  | Metabolite_Notdetected | 1.01 | 0.03 | 0.07 | 0.02 | 0.97 | 0.99 | 0.89 | 1.01 | 1.01 | 0.95 | < 5 | Active | inhibition [15]: 10% |
| C[C@H](NC(=O)OCC1c2ccccc2-c2ccccc21)C(=O)O | ≥ 200 |  |  |  |  |  |  |  |  |  |  |  |  |  |  |  |  |
| O=C(O)CNC(=O)OCC1c2ccccc2-c2ccccc21 | ≥ 200 |  |  |  |  |  |  |  |  |  |  |  |  |  |  |  |  |
| CC(C)(C)OC(=O)NCCCC[C@H](NC(=O)OCC1c2ccccc2-c2ccccc21)C(=O)NCC[N+](C)(C)C.[I-] | 0.14 |  |  | Metabolite_Notdetected | 1.04 | 0.03 | 0.06 | 0.01 | 1.01 | 1 | 0.81 | 1 | 0.95 | 0.97 | < 5 | Active | inhibition [15]: 20% |
| CC(C)(C)OC(=O)n1cc(C[C@H](NC(=O)OCC2c3ccccc3-c3ccccc32)C(=O)O)c2ccccc21 | 23 |  |  |  |  |  |  |  |  |  |  |  |  |  |  |  |  |
| C[N+](C)(C)CCOC(=O)CNC(=O)OCC1c2ccccc2-c2ccccc21 | 6.7 | ~100 | ~20 |  |  |  |  |  |  |  |  |  |  |  |  |  |  |
| C[C@H](NC(=O)OCC1c2ccccc2-c2ccccc21)C(=O)OCC[N+](C)(C)C | 5.1 | ~25 | ~20 |  |  |  |  |  |  |  |  |  |  |  |  |  |  |
| C[N+](C)(C)CCOC(=O)[C@H](Cc1ccccc1)NC(=O)OCC1c2ccccc2-c2ccccc21 | 1 | ~100 | ~20 |  |  |  |  |  |  |  |  |  |  |  |  |  |  |
| C[C@H](NC(=O)OCC1c2ccccc2-c2ccccc21)C(=O)NCC[N+](C)(C)C.[I-] | 7.5 |  |  | Metabolite_Notdetected | 1.02 | 0.31 | 0.44 | 0.13 | 1 | 0.97 | 0.94 | 1.01 | 1.04 | 0.98 | < 5 | Active |  |
| CC(C)(C)OC(=O)n1cc(C[C@H](NC(=O)OCC2c3ccccc3-c3ccccc32)C(=O)NCC[N+](C)(C)C)c2ccccc21.[I-] | 0.17 |  |  | Metabolite_Notdetected | 0.99 | 0.02 | 0.04 | < 0.01 | 0.96 | 0.87 | 0.68 | 1 | 0.93 | 0.94 | < 5 | Active | inhibition [18]: 10%; inhibition [15]: 30% |
| CC(C)(C)OC(=O)NCCCC[C@H](NC(=O)OCC1c2ccccc2-c2ccccc21)C(=O)OCC[N+](C)(C)C | 0.5 | ~25 | ~20 |  |  |  |  |  |  |  |  |  |  |  |  |  |  |
| CC(C)C[C@H](NC(=O)OCC1c2ccccc2-c2ccccc21)C(=O)O | 134 |  |  |  |  |  |  |  |  |  |  |  |  |  |  |  |  |
| O=C(N[C@@H](Cc1ccccc1)C(=O)O)OCC1c2ccccc2-c2ccccc21 | 320 |  |  |  |  |  |  |  |  |  |  |  |  |  |  |  |  |
| CC(C)(C)OC(=O)NCCCC[C@H](NC(=O)OCC1c2ccccc2-c2ccccc21)C(=O)O | 41 |  |  |  |  |  |  |  |  |  |  |  |  |  |  |  |  |
| CC(C)C[C@H](NC(=O)OCC1c2ccccc2-c2ccccc21)C(=O)OCC[N+](C)(C)C | 0.7 | ~50 | ~20 |  |  |  |  |  |  |  |  |  |  |  |  |  |  |
| O=S(=O)(F)Cc1ccccc1 |  |  |  |  |  |  | < 0.01 |  | < 0.01 |  |  | < 0.01 |  |  |  |  | Ratio [19]: 0.01 |
| C[N+](C)(C)CCNC(=O)CNC(=O)OCC1c2ccccc2-c2ccccc21.[I-] | 3.7 |  |  | Metabolite_Notdetected | 1 | 0.21 | 0.36 | 0.07 | 0.99 | 0.95 | 0.84 | 0.96 | 0.96 | 1.06 | < 5 | Active | inhibition [15]: 10% |
| CC(C)C[C@H](NC(=O)OCC1c2ccccc2-c2ccccc21)C(=O)NCC[N+](C)(C)C.[I-] | 1.8 |  |  | Metabolite_Notdetected | 1.01 | 0.11 | 0.21 | 0.03 | 1 | 1.01 | 0.92 | 1.05 | 0.99 | 0.99 | < 5 | Active |  |
